We go through two compounds from patent US20240050434A1, “HORMAD1 THERAPEUTICS” (Royal Cancer Hospital, priority 2020, published 2024).

Holding throughout (assay type): cell-based
The subject of assay [1] is RPE1 cells expressing a doxycycline-inducible HORMAD1 expression construct. The assay is described as follows: Mitotic slippage by time-lapse microscopy in nocodazole-arrested RPE1 cells. The following applies: 300 nM nocodazole arrest, then 100-200 nM reversine, 50 nM BOS172722 or AZD1152-HQPA. As for the experimental part: A. Diagram of experimental outline. Cells were exposed to doxycycline for 3 days, arrested in mitosis using 300 nM nocodazole or 100 nM Paclitaxel. Mitotic cells were filmed every 4 minutes for 1200 minutes, and the time cells remained arrested in mitosis before exiting via mitotic slippage was assessed. […] RPE1 cells expressing a doxycycline-inducible HORMAD1 cDNA expression construct were exposed to doxycycline or vehicle (H2O) for three days at which point cells were exposed to 300 nM nocodazole and filmed every 4 minutes using time-lapse microscopy. The time individual cells remained arrested in mitosis was quantified and presented as the % of cells arrested in mitosis at each time point. Data reflects a total of 125 cells from 3 biological repeats and was analysed using Mantel-Cox test. C. […] The time individual cells remained arrested in mitosis was quantified and presented as the % of cells arrested in mitosis at each time point. Data reflects a total of 125 cells from 3 biological repeats and was analysed using Mantel-Cox test. […] H1299 cells expressing two individual, doxycycline-inducible, shRNA particles targeting HORMAD1 as well as a non-targeting control were grown for three days in the presence of doxycycline at which point cell lysates were generated and analysed by SDS-PAGE and western blotting using anti-HORMAD1 and anti-β-ACTIN antibodies. […] The time individual cells remained arrested in mitosis was quantified and presented as the % of cells arrested in mitosis at each time point. Data reflects a total of 90 cells from 3 biological repeats and was analysed using Mantel-Cox test with Bonferonni correction. […] Mitotic cells were filmed every 2 minutes for 400 minutes, and the time taken before cells exited mitosis via mitotic slippage was assessed. […] The time individual cells remained arrested in mitosis was quantified and presented as the % of cells arrested in mitosis at each time point. […] The time individual cells remained arrested in mitosis was quantified and presented as the % of cells arrested in mitosis at each time point. […]

The subject of assay [2] is RPE1 cells expressing a doxycycline-inducible HORMAD1 construct. Kind of assay: Cell viability by cell titre glo in RPE1 cells with doxycycline-inducible HORMAD1. The method, then:
RPE1 cells expressing a doxycycline-inducible HORMAD1 construct were treated with doxycycline or vehicle. […] Six days post HORMAD1 induction and 5 days post drug, cell viability was estimated using cell titre glo reagent. Surviving fractions were calculated (normalised to vehicle treated cells).
RPE1 and SUM159 cells expressing a doxycycline-inducible HORMAD1 construct were treated with doxycycline or vehicle. […] Surviving fractions were calculated (normalised to vehicle treated cells). (FIGS. 7a, b and 14c and d). Data from 3 replicas was analysed using 2-way ANOVA. 5 days post drugging, cell viability was estimated using cell titre glo reagent. Surviving fractions were calculated (normalised to vehicle treated cells). Data from 4 replicas was analysed using 2-way ANOVA.
RPE1 cells expressing a doxycycline-inducible HORMAD1 construct were treated with doxycycline or vehicle. […] 5 days post drugging, cell viability was estimated using cell titre glo reagent. Surviving fractions were calculated (normalised to vehicle treated cells).
RPE1 cells expressing a doxycycline-inducible HORMAD1 construct were treated with doxycycline or vehicle in order to induce HORMAD1 expression. […] Using cell titre glo as a measure of cell viability, surviving fractions were calculated (normalised to eribulin alone).
RPE1 cells expressing a doxycycline-inducible HORMAD1 construct were treated with doxycycline or vehicle. […] Using cell titre glo as a measure of cell viability, surviving fractions were calculated (normalised to olaparib alone).

The test system of assay [3] is MDA-157, MDA-468, MDA436 TNBC cell-lines and MCF10A, MTSV1 non-transformed breast cell-lines. The assay is described as follows: SRB viability in HORMAD1-positive TNBC cell-lines versus non-transformed breast cell-lines. The settings on record: increasing doses, 10-14 days post drugging. As for the experimental part: To confirm that endogenous HORMAD1 expression in cancer cells (as opposed to transgene-driven HORMAD1 expression) also causes BUB1 inhibitor sensitivity, increasing doses of BUB1 inhibitor was added to 3 HORMAD1-positive triple-negative breast cancer cell-lines (TNBC) and 2 HORMAD1-negative non-transformed breast cell-lines.
Three HORMAD1 positive TNBC cell-lines (MDA-157, MDA-468, MDA436) and two non-transformed breast cell-lines (MCF10A and MTSV1) were treated with increasing doses of BUB1 inhibitor BAY-1816032. 10-14 days post drugging, cell viability was estimated by staining cells with SRB and measuring absorbance. Surviving fractions were calculated (normalised to vehicle treated cells). Data is from 3 replicas, analysed using 2-way ANOVA.

The test system of assay [4] is TP53 null MCF10A cells expressing a doxycycline-inducible HORMAD1 construct (3D spheroids). Kind of assay: 3D spheroid viability (cell titre glo) in TP53 null MCF10A cells with inducible HORMAD1. The settings on record: increasing doses, 14 days post drugging. The method, then:
TP53 null MCF10A cells expressing a doxycycline-inducible HORMAD1 construct were treated with doxycycline or vehicle. Cells were grown in 3D spheroid cultures. Following doxycycline induction, increasing doses of BUB1 inhibitor BAY-1816032 was added to the cells. 14 days post drugging, cell viability was estimated using cell titre glo reagent. Surviving fractions were calculated (normalised to vehicle treated cells). Data is from 3 replicas, analysed using 2-way ANOVA.

The structures appear in SMILES notation.

On to `CCN(CCO)CCCOc1ccc2c(Nc3cc(CC(=O)Nc4cccc(F)c4)[nH]n3)ncnc2c1` [AZD1152-HQPA], for which the “mitotic slippage / mitotic exit in HORMAD1 induced RPE1 cells” value in assay [1] is “Very similar results”.
With `COc1cnccc1Nc1nc(-c2nn(Cc3c(F)cc(OCCO)cc3F)c3ccccc23)ncc1OC` [BAY-1816032], in assay [2] (increasing doses alongside 0.4 nm eribulin, normalised to eribulin alone), the “growth inhibition (surviving fraction) of HORMAD1 expressing versus HORMAD1-negative RPE1 cells, with eribulin” value is reported as “more effectively inhibited”. Besides, in assay [2] (increasing doses alongside 0.47 μm olaparib, normalised to olaparib alone), the “growth inhibition (surviving fraction) of HORMAD1 expressing versus HORMAD1-negative RPE1 cells, with olaparib” value is on record as “more effectively inhibited”. For the same compound, the “growth inhibition (surviving fraction) of HORMAD1 expressing versus HORMAD1-negative RPE1 cells” value in assay [2] (increasing doses, 5 days post drug, cell titre glo, normalised to vehicle) is “more effectively inhibited”. Also, in assay [3], the “surviving fraction, HORMAD1-positive TNBC cell-lines compared with HORMAD1-negative non-transformed cell-lines” value was “significant differences”. Also, the “growth inhibition of HORMAD1 expressing versus HORMAD1-negative spheroids” value in assay [4] is “more effectively inhibited”.
